Experimental data: US4372947A, “Antibiotic saframycin S and process for producing the same” (Arai; Tadashi, priority 1980, dated 1983)
Converted amounts (≈) assume the structure as drawn. “Also recorded” adds a separate entry of the source. Like-named read-outs stand apart in the source and are kept apart here.

Columns and labels:
[1] = tested on: Staphylococcus aureus Smith; test: Antimicrobial spectrum (MIC); type: cell-based; settings: 1% glucose nutrient agar, 37° C., 24 or 48 hours
Staphylococcus albus = test: Antimicrobial spectrum (MIC); type: cell-based; settings: 1% glucose nutrient agar, 37° C., 24 or 48 hours
Staphylococcus citreus = test: Antimicrobial spectrum (MIC); type: cell-based; settings: 1% glucose nutrient agar, 37° C., 24 or 48 hours
Streptococcus faecalis = test: Antimicrobial spectrum (MIC); type: cell-based; settings: 1% glucose nutrient agar, 37° C., 24 or 48 hours
[2] = tested on: Streptococcus pyogenes Cook; test: Antimicrobial spectrum (MIC); type: cell-based; settings: blood agar, 37° C., 24 or 48 hours
[3] = tested on: Streptococcus pyogenes 090R; test: Antimicrobial spectrum (MIC); type: cell-based; settings: blood agar, 37° C., 24 or 48 hours
Salina lutea = test: Antimicrobial spectrum (MIC); type: cell-based
Bacillus subtilis PCI219 = test: Antimicrobial spectrum (MIC); type: cell-based; settings: 1% glucose nutrient agar, 37° C., 24 or 48 hours
bacillus cereus = test: Antimicrobial spectrum (MIC); type: cell-based; settings: 1% glucose nutrient agar, 37° C., 24 or 48 hours
[4] = tested on: Corynebacterium dephtheriae; test: Antimicrobial spectrum (MIC); type: cell-based
Corynebacterium xerosis = test: Antimicrobial spectrum (MIC); type: cell-based; settings: 1% glucose nutrient agar, 37° C., 24 or 48 hours
Mycobacterium sp. 607 = test: Antimicrobial spectrum (MIC); type: cell-based; settings: 3% glycerol nutrient agar (acid-fast bacteria), 37° C., 24 or 48 hours
Mycobacterium phlei = test: Antimicrobial spectrum (MIC); type: cell-based; settings: 3% glycerol nutrient agar (acid-fast bacteria), 37° C., 24 or 48 hours
Mycobacterium avium = test: Antimicrobial spectrum (MIC); type: cell-based; settings: 3% glycerol nutrient agar (acid-fast bacteria), 37° C., 24 or 48 hours
Nocardia asteroides = test: Antimicrobial spectrum (MIC); type: cell-based; settings: 37° C., 24 or 48 hours
[5] = tested on: Shigella dysenteriae Shiga; test: microbe, parasite or virus in culture; type: cell-based
Klebsiella pneumoniae = test: Antimicrobial spectrum (MIC); type: cell-based; settings: 1% glucose nutrient agar, 37° C., 24 or 48 hours
Brucella abortus = test: microbe, parasite or virus in culture; type: cell-based
Pseudomonas aeruginosa = test: Antimicrobial spectrum (MIC); type: cell-based; settings: 1% glucose nutrient agar, 37° C., 24 or 48 hours
[6] = Biological activity compared between saframycins
various microorganisms = test: Growth inhibition of various microorganisms; type: cell-based; settings: at low concentrations
leukemia L1210 = test: Antitumor activity, leukemia L1210; type: in vivo; settings: mouse tumor
leukemia P388 = test: Antitumor activity, leukemia P388; type: in vivo; settings: mouse tumor
melanoma B16 = test: Antitumor activity, melanoma B16; type: in vivo; settings: mouse tumor
Ehrlich's ascites tumor = test: Antitumor activity, Ehrlich's ascites tumor; type: in vivo; settings: mouse tumor
S-180 solid cancer = test: Antitumor activity, S-180 solid cancer; type: in vivo; settings: mouse tumor
gastric cancer of man = test: Growth inhibition of gastric cancer of man heterotransplanted to the nude mouse; type: in vivo
[7] = tested on: DNA of transplantable cancer cells; test: Mechanism of action: reaction with DNA of transplantable cancer cells
[8] = tested on: synthesis of ribosomal RNA and messenger RNA; test: Mechanism of action: synthesis of ribosomal RNA and messenger RNA; settings: transplantable cancer cells
[9] = tested on: RNA synthesis (Escherichia coli RNA polymerase, calf thymus DNA); test: RNA synthesis in in vitro reaction mixture; type: biochemical
tumor = settings: Japanese Patent Lay Open No. 44098/1979; cited from earlier work
[10] = tested on: Staphylococcus aureus 209P; test: Antimicrobial spectrum (MIC); type: cell-based; settings: 1% glucose nutrient agar, 37° C., 24 or 48 hours
[11] = tested on: Staphylococcus salivarius; test: Antimicrobial spectrum (MIC); type: cell-based; settings: 1% glucose nutrient agar, 37° C., 24 or 48 hours
Escherichia coli = test: Antimicrobial spectrum (MIC); type: cell-based; settings: 1% glucose nutrient agar, 37° C., 24 or 48 hours
Salmonella typhimurium = test: Antimicrobial spectrum (MIC); type: cell-based; settings: 1% glucose nutrient agar, 37° C., 24 or 48 hours
Serratia marcescens = test: Antimicrobial spectrum (MIC); type: cell-based; settings: 1% glucose nutrient agar, 37° C., 24 or 48 hours
Aspergillus oryzae = test: Antimicrobial spectrum (MIC); type: cell-based; settings: Sabouraud dextrose agar, 27° C., 48 hours
Description: (§1) Medium and culture condition:

Mucor mucedo = test: Antimicrobial spectrum (MIC); type: cell-based; settings: Sabouraud dextrose agar, 27° C., 48 hours
Description: as §1

Pencillium glaucum = test: Antimicrobial spectrum (MIC); type: cell-based; settings: Sabouraud dextrose agar, 27° C., 48 hours
Description: as §1

Rhodotorula glutinis = test: Antimicrobial spectrum (MIC); type: cell-based; settings: Sabouraud dextrose agar, 27° C., 48 hours
Description: as §1

Saccharomyces cerevisiae = test: Antimicrobial spectrum (MIC); type: cell-based; settings: Sabouraud dextrose agar, 27° C., 48 hours
Description: as §1

[12] = tested on: Trichophyton mentagrophytes; test: Antimicrobial spectrum (MIC); type: cell-based; settings: Sabouraud dextrose agar, 27° C., 48 hours
Description: as §1

male DDY strain mice = test: Acute toxicity LD50 in male DDY strain mice; type: in vivo, mouse; settings: male DDY mice 18-20 g
[13] = tested on: mouse lymphoid leukemia P388; test: Effects on mouse lymphoid leukemia P388 in BDF1 mice; type: in vivo; settings: for survival period of treated group over survival period of control group: i.p., 1×10^6 cells i.p., BDF1 mice; for increase of survival period: treatment 1-10 diseased days, 1×10^6 cells
Description: The effects of saframycin S on mouse lymphoid leukemia P388 were studied with BDF1 mice.

[14] = tested on: gram-positive bacteria and some acidfast bacteria or gram-negative bacteria; test: Antibacterial activity, summary of spectrum; type: cell-based
transplantable tumors = test: Activity against transplantable tumors; settings: in vivo
Aspergillus niger = test: Antimicrobial spectrum (MIC); settings: Sabouraud dextrose agar, 27° C., 48 hours
Candida albicans 7N = test: Antimicrobial spectrum (MIC); settings: Sabouraud dextrose agar, 27° C., 48 hours
[15] = 1% glucose nutrient agar, 37° C., 24 or 48 hours

COC1=C(C)C(=O)C2=C(C1=O)C1C3CC4=C(C(=O)C(OC)=C(C)C4=O)C(CNC(=O)C(C)=O)N3C(C#N)C(C2)N1C (centres unmarked) [Saframycin A, reference compound]
MIC ([1]; Staphylococcus aureus, read-out: MIC): 0.025 mg/L (≈ 0.0444 µM)
MIC (Staphylococcus albus; Staphylococcus, read-out: MIC): 0.006 mg/L (≈ 0.0107 µM)
MIC (Staphylococcus citreus; Staphylococcus, read-out: MIC): 0.006 mg/L (≈ 0.0107 µM)
MIC (Streptococcus faecalis; Enterococcus faecalis, read-out: MIC): 1.56 mg/L (≈ 2.77 µM)
MIC ([2]; Streptococcus pyogenes, read-out: MIC): 1.56 mg/L (≈ 2.77 µM)
MIC ([3]; Streptococcus pyogenes, 090R, read-out: MIC): 3 mg/L (≈ 5.33 µM)
MIC (Salina lutea): 0.006 mg/L (≈ 0.0107 µM)
MIC (Bacillus subtilis PCI219; Bacillus subtilis, PCI219, read-out: MIC): 0.025 mg/L (≈ 0.0444 µM)
MIC (bacillus cereus; Bacillus cereus, read-out: MIC): 0.4 mg/L (≈ 0.711 µM)
MIC ([4]; Corynebacterium): 0.001 mg/L (≈ 0.00178 µM)
MIC (Corynebacterium xerosis; Corynebacterium xerosis, read-out: MIC): 0.012 mg/L (≈ 0.0213 µM)
MIC (Mycobacterium sp. 607; Mycobacterium, SP.607, read-out: MIC): 1.56 mg/L (≈ 2.77 µM)
MIC (Mycobacterium phlei; Mycolicibacterium phlei, read-out: MIC): 1.56 mg/L (≈ 2.77 µM)
MIC (Mycobacterium avium; Mycobacterium avium, read-out: MIC): 100 mg/L (≈ 178 µM)
MIC (Nocardia asteroides; Nocardia asteroides, read-out: MIC): 50 mg/L (≈ 88.9 µM)
MIC ([5]; Shigella dysenteriae): 1.56 mg/L (≈ 2.77 µM)
MIC (Klebsiella pneumoniae; Klebsiella pneumoniae, read-out: MIC): 1.56 mg/L (≈ 2.77 µM)
MIC (Brucella abortus; Brucella abortus): 1.56 mg/L (≈ 2.77 µM)
MIC (Pseudomonas aeruginosa; Pseudomonas aeruginosa, read-out: MIC): 100 mg/L (≈ 178 µM)
biological activity among saframycins A-E ([6]; among saframycins A-E): highest biological activity
inhibition of growth of various microorganisms (various microorganisms): effective in inhibiting the growth of various microorganisms at low concentrations
effect on leukemia L1210 (leukemia L1210): effective
effect on leukemia P388 (leukemia P388): effective
effect on melanoma B16 (melanoma B16): effective
effect on Ehrlich's ascites tumor (Ehrlich's ascites tumor): effective
effect on S-180 solid cancer (S-180 solid cancer): effective
inhibition of growth of gastric cancer of man (gastric cancer of man): effective in inhibiting the growth of gastric cancer of man
reaction with DNA, inhibition of template activity [7]: specifically reacted with DNA of transplantable cancer cells to inhibit their template activity
synthesis of ribosomal RNA and messenger RNA [8]: prevented synthesis of ribosomal RNA and messenger RNA
inhibition of RNA synthesis in vitro ([9]; Escherichia coli RNA polymerase, calf thymus DNA, RNA precursor, no reducing agent): did not inhibit RNA synthesis
inhibition of RNA synthesis in vitro ([9]; with dithiothreitol (DTT) and other reducing agent): RNA synthesis inhibition equivalent to in vivo effect was observed
antitumor effect (tumor): strong antitumor effect

COC1=C(C)C(=O)C2=C(C1=O)[C@@H]1[C@@H]3CC4=C(C(=O)C(OC)=C(C)C4=O)[C@H](CNC(=O)C(C)=O)N3[C@@H](O)[C@H](C2)N1C [Saframycin S]
MIC [10]: 0.01 mg/L (≈ 0.0181 µM)
MIC [1]: 0.001 mg/L (≈ 0.00181 µM)
MIC (Staphylococcus albus): 0.001 mg/L (≈ 0.00181 µM)
MIC (Staphylococcus citreus): 0.001 mg/L (≈ 0.00181 µM)
MIC (Streptococcus faecalis): 1.56 mg/L (≈ 2.82 µM)
MIC [2]: 0.05 mg/L (≈ 0.0903 µM)
MIC [3]: 0.05 mg/L (≈ 0.0903 µM)
MIC [11]: 25.0 mg/L (≈ 45.2 µM)
MIC (Salina lutea; [15]): 0.006 mg/L (≈ 0.0108 µM)
MIC (Bacillus subtilis PCI219): 0.025 mg/L (≈ 0.0452 µM)
MIC (bacillus cereus): 0.4 mg/L (≈ 0.723 µM)
MIC [4, 15]: 0.001 mg/L (≈ 0.00181 µM)
MIC (Corynebacterium xerosis): 0.001 mg/L (≈ 0.00181 µM)
MIC (Mycobacterium sp. 607): 1.56 mg/L (≈ 2.82 µM)
MIC (Mycobacterium phlei): 0.8 mg/L (≈ 1.45 µM)
MIC (Mycobacterium avium): 50.0 mg/L (≈ 90.3 µM)
MIC (Nocardia asteroides): 6.25 mg/L (≈ 11.3 µM)
MIC (Escherichia coli): 25.0 mg/L (≈ 45.2 µM)
MIC (Salmonella typhimurium): 100 mg/L (≈ 181 µM)
MIC [5, 15]: 1.56 mg/L (≈ 2.82 µM)
MIC (Klebsiella pneumoniae): 1.56 mg/L (≈ 2.82 µM)
MIC (Brucella abortus; blood agar, 37° C., 24 or 48 hours): 0.8 mg/L (≈ 1.45 µM)
MIC (Serratia marcescens): 50.0 mg/L (≈ 90.3 µM)
MIC (Pseudomonas aeruginosa): 100 mg/L (≈ 181 µM)
MIC (Aspergillus oryzae): 100 mg/L (≈ 181 µM)
MIC (Mucor mucedo): 100 mg/L (≈ 181 µM)
MIC (Pencillium glaucum): 100 mg/L (≈ 181 µM)
MIC (Rhodotorula glutinis): 100 mg/L (≈ 181 µM)
MIC (Saccharomyces cerevisiae): 50 mg/L (≈ 90.3 µM)
MIC [12]: 50 mg/L (≈ 90.3 µM)
LD50 (male DDY strain mice; intraperitoneal injection): 2.5 mg/kg
LD50 (male DDY strain mice; intravenous injection): 0.83 mg/kg
survival period of treated group over survival period of control group ([13]; 0.5 mg/kg daily for 10 days): 146.2%
increase of survival period ([13]; 0.5 mg/kg/day): 46.2%
survival period of treated group over survival period of control group ([13]; 0.75 mg/kg daily for 10 days): 157.7%
increase of survival period ([13]; 0.75 mg/kg/day): 57.7%
survival period of treated group over survival period of control group ([13]; 1.0 mg/kg daily for 10 days): 161.5%
increase of survival period ([13]; 1.0 mg/kg/day): 61.5%
survival period of treated group over survival period of control group ([13]; 1.5 mg/kg daily for 10 days): 182.7%
increase of survival period ([13]; 1.5 mg/kg/day): 82.7%
antibacterial activity [14]: antibacterial activities mainly against gram-positive bacteria; also recorded: antibacterial activity mainly against gram-positive bacteria and some acidfast bacteria or gram-negative bacteria such as Mycobacterium, Shigella dysenteriae Shiga and Brucella
biological activities relative to saframycin A ([6]; compared with saframycin A): still more powerful biological activities in every point than saframycin A; also recorded: almost equal to that of saframycin A
activity against transplantable tumors (transplantable tumors): activity against transplantable tumors
MIC (Aspergillus niger): > 100 mg/L
MIC (Candida albicans 7N): > 100 mg/L
